From publication PMC5634595, “Properties of halogenated and sulfonated porphyrins relevant for the selection of photosensitizers in anticancer and antimicrobial therapies” (PLoS ONE, 2017)

Legend:
[1] = UV/Vis absorption spectra, molar absorption coefficients; type: physicochemical; conditions: EtOH
Experimental: All commercial chemicals and reagents were of analytical grade and were purchased from Sigma-Aldrich. UV/Vis absorption spectra were recorded in a Hewlett Packard HP8453 spectrophotometer. Solutions containing samples of photosensitizers were dissolved in the selected solvent in quartz cuvettes. Using measured absorbance for various concentrations of porphyrin in ethanol, the molar absorption coefficients were determined from Beer’s law.

[2] = Singlet oxygen quantum yield by phosphorescence at 1270 nm; type: physicochemical; conditions: EtOH, phenalenone as reference
Experimental: Fluorescence emission spectra were recorded from 550 nm to 750 nm with excitation at Soret band (λ≈420 nm). The excitation and emission slits were both set to 8 nm and scanning speed to 50 nm/min. Fluorescence spectra were recorded with a Perkin Elmer Fluorescence Spectrometer LS 55. Determination of fluorescence quantum yields: ΦF of studied photosensitizers was determined using the comparative method according to the equation: ΦF=ΦFStd⋅FAStdn^2/FStdAnStd2, (1) where F and FStd are the areas under the fluorescence emission curves of the sample and the standard, A and AStd are the absorbance of the sample and the standard and n are the refractive indices of the solvent used for the sample and the standard, respectively. Commercially available tetraphenylporphyrin TPP (Std) (ΦF = 0.10 in toluene) was employed as the standard. The absorbance of the solutions at the excitation wavelength was in the range of 0.02. Singlet oxygen quantum yields were determined based on the relative phosphorescence emissions of singlet oxygen generated by a reference and by each one of the porphyrins, using a method described elsewhere. Briefly, a modified Applied Photophysics LKS.60 flash photolysis spectrometer with a Hamamatsu NIR photomultiplier for detection and HP Infinium (500 MHz, 1GSas^-1) or Tektronix DPO 7254 (2.5 GHz, 40GSas^-1) oscilloscopes were used. The adaptation of this spectrometer allowed for the detection of singlet oxygen phosphorescence at room temperature. This emission was detected using a Hamamatsu R5509–42 photomultiplier, cooled to 193 K in a liquid nitrogen chamber. […] The modification of the spectrometer for time-resolved singlet oxygen phosphorescence measurements involved the interposition of a Melles Griot cold mirror (03MCS005), which reflects more than 99% of the incident light in the 400–700 nm range, and of a Scotch RG665 filter. A 600 line diffraction grating was mounted in place of a standard one. […] Solutions of photosensitizers were prepared with matched absorbances close to 0.2 at 355 nm. […]

[3] = n-Octanol/PBS partition coefficient, shake-flask; type: physicochemical; conditions: modified shake-flask
Experimental: The n-octanol/PBS partition coefficients were measured following shake-flask method with minor modifications. The photosensitizers were dissolved in n-octanol previously saturated with a solution of PBS. The same volume of PBS saturated with n-octanol was added and mixed on a vortex device and then the phases were separated by centrifugation. Next, the PBS/n-octanol phase was taken and diluted to obtain 0.5% of PBS/n-octanol content in the final solution. This solution was left into the ultrasonic bath. The fluorescence of each solution was measured using Fluorescence Spectrometer LS 55 (Perkin Elmer) and compared with calibration curve to obtain the concentration of the photosensitizer. Partition coefficients were calculated from the ratio coct/cPBS, where coct and cPBS are the concentrations of the porphyrin derivatives in the n-octanol and in the PBS.

[4] = Dynamic light scattering and zeta potential of PS-Pluronic L121 micelles; type: physicochemical; conditions: Pluronic L121-based formulation, DLS, homogeneous distribution
Experimental: Micellar formulations with Pluronic […] were prepared according to a method recently described. The micelles were characterized by Dynamic Light Scattering (DLS) using a Malvern Zetaziser Nano ZS system. The apparent diffusion coefficients of the micelles were obtained from the normalized time correlation function of the scattered electric field, g(1)(τ), using the cumulants analysis. An average value was obtained from repeated measurements for each sample (N = 3).

A549 cells = assay: Dark cytotoxicity, MTT; type: cell-based, human; conditions: A549, 100 μM, 24 h
Experimental: (§1) The studies were performed on human lung adenocarcinoma (A549), murine colon carcinoma (CT26) and murine endothelial/vascular epithelium (2H11) cell lines. A549, CT26 and 2H11 cells were grown in full-strength DMEM with 4.5 g/L glucose, L-glutamine, sodium pyruvate and 3.7 g/L NaHCO3 (BioTech) with addition of 10% fetal bovine serum (BioTech, Poland) and supplemented by antibiotics (penicillin/streptomycin). Before the experiments, the cells were washed with PBS, removed by trypsinization, then re-plated into microplate (or culture flask) with appropriate cells density and maintained in a humidified atmosphere at 37 °C and 5% CO2.
(§2) MTT cytotoxicity assay (which determines the mitochondrial activity), based upon the ability of living cells to reduce (3-(4,5-dimethylthiazol-2-yl)2,5-diphenyl tetrazolium bromide (MTT) into formazan was used to assess photosensitizer-mediated cytotoxicity. Two identical 96-well plates with A549, CT26 or 2H11 cell cultures seeded on 96-plate microplate (10^4 per well) were used for each experiment. When the cells were attached to the plates, PS solution in growth medium (DMSO<0.5%) at concentrations between 0.1 to 100 μM was added to the culture. Treated cultures were incubated for optimal time (estimated experimentally) at 37°C in the dark. […] Data were expressed as mean absorbance value of six samples and standard error of the mean.

2H11 cells = assay: Dark cytotoxicity, MTT; type: cell-based, murine; conditions: 2H11, 100 μM, 24 h
Experimental: as §1, §2

CT26 cells = assay: Dark cytotoxicity, MTT; type: cell-based, murine; conditions: CT26, 100 μM, 24 h
Experimental: as §1, §2

With `O=S(=O)(O)c1ccc(F)c(-c2c3nc(c(-c4c(F)ccc(S(=O)(=O)O)c4F)c4ccc([nH]4)c(-c4c(F)ccc(S(=O)(=O)O)c4F)c4nc(c(-c5c(F)ccc(S(=O)(=O)O)c5F)c5ccc2[nH]5)C=C4)C=C3)c1F` [F2POH, 5,10,15,20-tetrakis(2,6-difluoro-3-sulfophenyl)porphyrin] the “Absorption λmax, Qx (0,1)” value [1] was 584 nm, the “Absorption λmax, Qx(0,0)” value [1] was 638 nm and the “Absorption λmax, Qy (0,0)” value [1] was 532 nm. For the same compound, the “Absorption λmax, Qy (0,1)” value [1] was 508 nm, the “Absorption λmax, B(0,0)” value ([1]; Soret band) was 420 nm and the “Singlet oxygen quantum yield ΦΔ” value [2] was 0.71. The logP [3] was -1.74, the “Particle Diameter (hydrodynamic diameter)” value [4] was “ca. 115 nm” and the “Cytotoxicity in the dark” value (A549 cells) was 25%. For the same compound, the “Cytotoxicity in the dark” value (2H11 cells) was 25% and the “Cytotoxicity in the dark” value (CT26 cells) was 25%.
